Common to all, as to assay: Pre-emergence soil-applied, greenhouse: visual weed control
Holding throughout (type): in vivo

Test [1] concerns Brachiaria platyphylla (Groseb.) Nash or Urochloa platyphylla (Nash) R.D. Webster (BRAPP). An excerpt: (§1) Seeds or nutlets of the desired test plant species were planted in a soil matrix prepared by mixing a loam soil (e.g., 32 percent silt, 23 percent clay, and 45 percent sand, with a pH of about 6.5 and an organic matter content of about 1.9 percent) and calcareous grit in an 80 to 20 ratio. The soil matrix was contained in plastic pots with a volume of 1 quart and a surface area of 83.6 square centimeters (cm^2).
(§2) Treatments consisted of the benzyl ester of 4-amino-3-chloro-5-fluoro-6-(4-chloro-2-fluoro-3-methoxy-phenyl)pyridine-2-carboxylic acid (compound A) formulated as an SC (suspension concentrate) and various herbicidal components alone and in combination. Forms of compound A were applied on an acid equivalent basis.
(§3) Treatment requirements were calculated based upon the rates being tested, the concentration of active ingredient or acid equivalent in the formulation, and a 12 mL application volume at a rate of 187 L/ha.
(§4) For treatments comprised of formulated compounds, measured amounts of compounds were placed individually in 25 mL glass vials and diluted in a volume of 1.25% (v/v) Agri-Dex® crop oil concentrate (COC) to obtain 12× stock solutions. […] Application solutions were prepared by adding an appropriate amount of each stock solution (e.g., 1 mL) and diluted to the appropriate final concentrations with the addition of 10 mL of an aqueous mixture of 1.25% (v/v) COC so that the final spray solutions contained 1.25% (v/v) COC.
(§5) For treatments comprised of formulated and technical compounds, weighed amounts of the technical materials were placed individually in 25 mL glass vials and dissolved in a volume of 97:3 (v/v) acetone/DMSO to obtain 12× stock solutions, and measured amounts of the formulated compounds were placed individually in 25 mL glass vials and diluted in a volume of 1.5% (v/v) COC or water to obtain 12× stock solutions. […] Application solutions were prepared by adding an appropriate amount of each stock solution (e.g., 1 mL) and diluted to the appropriate final concentrations with the addition of an appropriate amount of an aqueous mixture of 1.5% (v/v) COC so that the final spray solutions contained 1.25% (v/v) COC. As required, additional water and/or 97:3 (v/v) acetone/DMSO was added to individual application solutions so that the final acetone and DMSO concentrations of the application solutions being compared were 8.1% and 0.25%, respectively.
(§6) All stock solutions and applications solutions were visually inspected for compound compatibility prior to application. Spray solutions were applied to the soil with an overhead Mandel track sprayer equipped with a 8002E nozzles calibrated to deliver 187 L/ha over an application area of 0.503 m^2 at a spray height of 18 inches (46 cm) above average pot height. Control pots were sprayed in the same manner with the solvent blank.
(§7) The treated and control pots were placed in a greenhouse and top watered as needed. When required to ensure good germination and healthy plants, a fungicide treatment and/or other chemical or physical treatment was applied. The pots were maintained in a greenhouse with an approximate 14 hr photoperiod which was maintained at about 29° C. during the day and 26° C. during the night. Nutrients (Peters® Excel 15-5-15 5-Ca 2-Mg) were applied in the irrigation solution as needed and water was added on a regular basis. Supplemental lighting was provided with overhead metal halide 1000-Watt lamps as necessary. After approximately 4 weeks, the condition of the test plants as compared with that of the untreated plants was determined visually and scored on a scale of 0 to 100 percent where 0 corresponds to no injury or growth inhibition and 100 corresponds to complete kill.
(§8) Colby's equation was used to determine the herbicidal effects expected from the mixtures (Colby, S. R. 1967. Calculation of the synergistic and antagonistic response of herbicide combinations. Weeds 15:20-22.). […]

The test system of test [2] is Echinochloa colonum (L.) Link (ECHCO).
Source text: as §1, §2, §3, §4, §5, §6, §7, §8

Test [3] relates to Echinochloa crus-galli (L.) P. Beauv. (ECHCG).
Source text: as §1, §2, §3, §4, §5, §6, §7, §8

Test [4] relates to Sesbania exaltata (Raf.) Cory/Rydb. Ex Hill (SEBEX). As to conditions: Compound A Benzyl Ester 16 g ae/ha alone.
Source text: as §1, §2, §3, §4, §5, §6, §7, §8

Test [5] relates to Setaria faberi Herrm. (SETFA).
Source text: as §1, §2, §3, §4, §5, §6, §7, §8

For test [6], the system named is Xanthium strumarium L. (XANST). As to conditions: 27 DAA.
Source text: as §1, §2, §3, §4, §5, §6, §7, §8

Where [7] appears, read: Compound A Benzyl Ester 16 g ae/ha alone.
The mark [8] stands for this setting: Compound A Benzyl Ester 32 g ae/ha alone.

Regarding `COc1c(Cl)ccc(-c2nc(C(=O)OCc3ccccc3)c(Cl)c(N)c2F)c1F` [Compound A Benzyl Ester, benzyl ester of 4-amino-3-chloro-5-fluoro-6-(4-chloro-2-fluoro-3-methoxy-phenyl)pyridine-2-carboxylic acid], the “Visual Weed Control (%) - 33 DAA BRAPP Obs” value in test [1] (setting [7]) is reported as 23%; in test [1] (setting [8]), 50%. In addition, the “Visual Weed Control (%) - 33 DAA ECHCO Obs” value was 12% in test [2] (setting [7]) and 3% in test [2] (setting [8]). Further, the results for the “Visual Weed Control (%) - 33 DAA ECHCG Obs” value in test [3] (setting [7]) and in test [3] (setting [8]) were 20% and 33%, respectively. For the same compound, the “Visual Weed Control (%) - 33 DAA SEBEX Obs” value in test [4] turned out to be 40%. The “Visual Weed Control (%) - 33 DAA SETFA Obs” value in test [5] (setting [7]) and in test [5] (setting [8]) was 13% in each case.
`CSC(=O)c1c(C(F)F)nc(C(F)(F)F)c(C(=O)SC)c1CC(C)C` [Dithiopyr, S,S′-dimethyl-2-(difluoromethyl)-4-(2-methylpropyl)-6-(trifluoromethyl)-3,5-pyridinedicarbothioate]: the “Visual Weed Control (%) Obs” value in test [6] (140 g ai/ha) was 0%; in test [6] (280 g ai/ha), 17%.

The record behind these values is patent publication US8846570B2, “Herbicidal compositions comprising 4-amino-3-chloro-5-fluoro-6-(4-chloro-2-fluoro-3-methoxyphenyl)pyridine-2-carboxylic acid or a derivative thereof and microtubule inhibiting herbicides” (Dow AgroSciences LLC, priority 2012, dated 2014).
